Read-outs that look alike come from different tables or passages of the source. Marks after values point to notes of the source that are not given here.
What was measured:
[1] = tested on: rat aortic ring microvessel outgrowth; assay: rat aortic ring microvessel assay; assay type: cell-based; conditions: for activity at 50 µM: Rattus norvegicus, 96 h, read-out: Average of Growth [%]
Method: The anti-angiogenic activity of the compounds was tested following the procedure described in Lepper, E. R., Ng, S. S., Gutschow, M., Weiss, M., Hauschildt, S., Hecker, T. K., Luzzio, F. A., Eger, K., Figg, W. D., J. Med. Chem. 2004, Comparative molecular field analysis and comparative molecular similarity indices analysis of thalidomide analogues as angiogenesis inhibitors; 47(9):2219-27. Twelve-well tissue culture-grade plates were covered with 250 μL Matrigel and allowed to gel for 30 to 45 minutes at 37° C., 5% CO2. Thoracic aortas were excised from 6- to 8-week-old male Sprague-Dawley rats, and the fibroadipose tissue was removed. The aortas were cut into 1 mm-long cross-sections and placed on the Matrigel coated wells. They were then covered with an additional 250 μL Matrigel and allowed to gel for 30 to 45 minutes at 37° C., 5% CO2. The rings were cultured for 24 hours in 1 mL EBM-2. After 24 hours, the medium was removed and replaced with 1 mL EBM-2 (Clonetics Corp.), supplemented with fetal bovine serum (2%), ascorbic acid, hydrocortisone, heparin, and amphotericin. Each selected compound was dissolved in DMSO and added to the EBM-2, before it was added to the well. Each selected compound was administered daily for four days at a daily dosage of 50 μM. Photos were taken on Day 5. DMSO alone was used as a control baseline. Carboxyamidotriazole (“CAI” from NCI, Bethesda, Md.) was used as a positive control. The vascular outgrowth was quantified using Adobe Photoshop (Adobe Systems, Inc., San Jose, Calif.) and the results are provided below in Tables 1 and 2.

[2] = tested on: Human prostate cancer cell lines (PC3s); assay: PC3 Proliferation Assay (hemocytometer count, trypan blue); assay type: cell-based; conditions: 24 hours, cell count normalized to DMSO control, concentration not given
Method: (§1) Human umbilical vein endothelial cells (HUVECs (Clonetics)) were maintained in EGM-II, supplemented with a Bullet-Kit (Clonetics). Human prostate cancer cell lines (PC3s (ATCC)) were maintained in RPMI-1640, supplemented with 10% fetal bovine serum. Both cell lines were incubated at 37° C., in a 5% CO2 atmosphere. Cells were seeded onto 12-well plates at a density of 30,000 cells/well and allowed to attach overnight at 37° C. and 5% CO2. The culture medium was then aspirated, and fresh culture medium containing either the vehicle (0.5% DMSO) or drug solution in 0.5% DMSO was added. After 24 hours, media was removed, then cells were trypsinized and counted with a hemocytometer, using trypan blue to exclude non-viable cells. Each compound was tested in triplicate and the cell count was normalized to the controls, to give the % growth. The results are shown below in Tables 3 and 4, and in FIGS. 5 and 6.

PC3 = PC3 Proliferation Assay, CCK-8 counting; assay type: cell-based, human; conditions: 24 h incubation
Method: as §1
(§2) The experiments for the data in Table 5 was performed as described above, except that the Table 5 experiments were performed in […] (at two concentrations), and the CCK-8 Cell Counting Kit (Dajindo Technologies) was utilized after treating for 24 hours.

HUVEC = HUVEC Proliferation Assay, CCK-8 counting; assay type: cell-based, human; conditions: 24 h incubation
Method: as §1, §2

[3] = tested on: Human umbilical vein endothelial cells (HUVECs); assay: HUVEC Proliferation Assay (hemocytometer count, trypan blue); assay type: cell-based; conditions: 24 hours, cell count normalized to DMSO control, concentration not given
Method: as §1

[4] = tested on: rat aortic ring microvessel outgrowth; conditions: 50 μM; data reported in Lepper et al., J. Med. Chem. 2004; cited from earlier work

CN1C(=O)NC(=O)C(C)(N2C(=O)c3c(F)c(F)c(F)c(F)c3C2=O)C1=O (racemic) [Compound 19a, 1,5-Dimethyl-5-(4,5,6,7-tetrafluoro-1,3-dihydro-1,3-dioxo-2H-isoindol-2-yl)-2,4,6-(1H,3H,5H)-pyrimidinetrione]
activity at 50 µM [1]: 0.12%

CCCN1C(=O)NC(=O)C(C)(N2C(=O)c3c(F)c(F)c(F)c(F)c3C2=O)C1=O (racemic) [Compound 19b, 5-Methyl-1-propyl-5-(4,5,6,7-tetrafluoro-1,3-dihydro-1,3-dioxo-2H-isoindol-2-yl)-2,4,6(1H,3H,5H)-pyrimidinetrione]
activity at 50 µM [1]: 0.13%
Average of Growth [%] [2]: 1.50%

CC(C)N1C(=O)NC(=O)C(C)(N2C(=O)c3c(F)c(F)c(F)c(F)c3C2=O)C1=O (racemic) [Compound 19c, 1-Isopropyl-5-methyl-5-(4,5,6,7-tetrafluoro-1,3-dihydro-1,3-dioxo-2H-isoindol-2-yl)-2,4,6(1H,3H,5H)-pyrimidinetrione]
activity at 50 µM [1]: 0.14%
Average of Growth [%] [2]: 3.75%

CCN1C(=O)NC(=O)C(CC)(N2C(=O)c3c(F)c(F)c(F)c(F)c3C2=O)C1=O (racemic) [Compound 19d, 1,5-Diethyl-5-(4,5,6,7-tetrafluoro-1,3-dihydro-1,3-dioxo-2H-isoindol-2-yl)-2,4,6-(1H,3H,5H)-pyrimidinetrione]
activity at 50 µM [1]: 0.13%

CCCN1C(=O)NC(=O)C(CC)(N2C(=O)c3c(F)c(F)c(F)c(F)c3C2=O)C1=O (racemic) [Compound 19e, 5-Ethyl-1-propyl-5-(4,5,6,7-tetrafluoro-1,3-dihydro-1,3-dioxo-2H-isoindol-2-yl)-2,4,6(1H,3H,5H)-pyrimidinetrione]
activity at 50 µM [1]: 0.12%
PC3 Growth (5 uM) (Control = 100%) Mean (PC3): 31.02%
PC3 Growth (10 uM) (Control = 100%) Mean (PC3): 9.67%
HUVEC Growth (5 uM) (Control = 100%) Mean (HUVEC): 1.68%
HUVEC Growth (10 uM) (Control = 100%) Mean (HUVEC): 2.14%

CCN1C(=O)NC(=O)C(C)(N2C(=O)c3c(F)c(F)c(F)c(F)c3C2=O)C1=O (racemic) [Compound 19f, 1-Ethyl-5-methyl-5-(4,5,6,7-tetrafluoro-1,3-dihydro-1,3-dioxo-2H-isoindol-2-yl)-2,4,6(1H,3H,5H)-pyrimidinetrione]
activity at 50 µM [1]: 23.8%
PC3 Growth (5 uM) (Control = 100%) Mean (PC3): 25.95%
PC3 Growth (10 uM) (Control = 100%) Mean (PC3): 10.94%
HUVEC Growth (5 uM) (Control = 100%) Mean (HUVEC): 27.17%
HUVEC Growth (10 uM) (Control = 100%) Mean (HUVEC): 9.00%

CCC1(N2C(=O)c3c(F)c(F)c(F)c(F)c3C2=O)C(=O)NC(=O)N(C(C)C)C1=O (racemic) [Compound 19g, 5-Ethyl-1-isopropyl-5-(4,5,6,7-tetrafluoro-1,3-dihydro-1,3-dioxo-2H-isoindol-2-yl)-2,4,6(1H,3H,5H)-pyrimidinetrione]
activity at 50 µM [1]: 0.13%
Average of Growth [%] [2]: 1.50%

CC1(N2C(=O)c3c(F)c(F)c(F)c(F)c3C2=O)C(=O)NC(=O)N(C2CCCCC2)C1=O (racemic) [Compound 19h, 1-Cyclohexyl-5-methyl-5-(4,5,6,7-tetrafluoro-1,3-dihydro-1,3-dioxo-2H-isoindol-2-yl)-2,4,6(1H,3H,5H)-pyrimidinetrione]
activity at 50 µM [1]: 11.8%

CCC1(N2C(=O)c3c(F)c(F)c(F)c(F)c3C2=O)C(=O)NC(=O)N(C2CCCCC2)C1=O (racemic) [Compound 19i, 1-Cyclohexyl-5-ethyl-5-(4,5,6,7-tetrafluoro-1,3-dihydro-1,3-dioxo-2H-isoindol-2-yl)-2,4,6(1H,3H,5H)-pyrimidinetrione]
activity at 50 µM [1]: 11.2%

CN1C(=O)NC(=O)C(C)(NC(=O)c2cc(F)c(F)c(F)c2F)C1=O (racemic) [Compound 20a, N-(Hexahydro-1,5-dimethyl-2,4,6-trioxo-5-pyrimidinyl)-2,3,4,5-tetrafluorobenzamide]
activity at 50 µM [1]: 58.3%

CCCN1C(=O)NC(=O)C(C)(NC(=O)c2cc(F)c(F)c(F)c2F)C1=O (racemic) [Compound 20b, N-(Hexahydro-5-methyl-2,4,6-trioxo-1-propyl-5-pyrimidinyl)-2,3,4,5-tetrafluorobenzamide]
activity at 50 µM [1]: 23.1%

CC(C)N1C(=O)NC(=O)C(C)(NC(=O)c2cc(F)c(F)c(F)c2F)C1=O (racemic) [Compound 20c, N-(Hexahydro-1-isopropyl-5-methyl-2,4,6-trioxo-5-pyrimidinyl)-2,3,4,5-tetrafluorobenzamide]
activity at 50 µM [1]: 5.63%

CCN1C(=O)NC(=O)C(CC)(NC(=O)c2cc(F)c(F)c(F)c2F)C1=O (racemic) [Compound 20d, N-(1,5-Diethyl-hexahydro-2,4,6-trioxo-5-pyrimidinyl)-2,3,4,5-tetrafluorobenzamide]
activity at 50 µM [1]: 31.1%
PC3 Growth (10 uM) (Control = 100%) Mean (PC3): 87.73%
HUVEC Growth (5 uM) (Control = 100%) Mean (HUVEC): 11.46%
HUVEC Growth (10 uM) (Control = 100%) Mean (HUVEC): 14.53%

CCCN1C(=O)NC(=O)C(CC)(NC(=O)c2cc(F)c(F)c(F)c2F)C1=O (racemic) [Compound 20e, N-(5-Ethyl-hexahydro-2,4,6-trioxo-1-propyl-5-pyrimidinyl)-2,3,4,5-tetrafluorobenzamide]
activity at 50 µM [1]: 0.19%
Average of Growth [%] [3]: 24.05%
Average of Growth [%] [2]: 26.27%

CCN1C(=O)NC(=O)C(C)(NC(=O)c2cc(F)c(F)c(F)c2F)C1=O (racemic) [Compound 20f, N-(1-Ethyl-hexahydro-5-methyl-2,4,6-trioxo-5-pyrimidinyl)-2,3,4,5-tetrafluorobenzamide]
activity at 50 µM [1]: 16.8%

CCC1(NC(=O)c2cc(F)c(F)c(F)c2F)C(=O)NC(=O)N(C(C)C)C1=O (racemic) [Compound 20g, N-(5-Ethyl-hexahydro-1-isopropyl-2,4,6-trioxo-5-pyrimidinyl)-2,3,4,5-tetrafluorobenzamide]
activity at 50 µM [1]: 0.1%
Average of Growth [%] [3]: 62.03%
Average of Growth [%] [2]: 38.46%

CC1(NC(=O)c2cc(F)c(F)c(F)c2F)C(=O)NC(=O)N(C2CCCCC2)C1=O (racemic) [Compound 20h, N-(1-Cyclohexyl-hexahydro-5-methyl-2,4,6-trioxo-5-pyrimidinyl)-2,3,4,5-tetrafluorobenzamide]
activity at 50 µM [1]: 16.5%
Average of Growth [%] [3]: 91.14%
Average of Growth [%] [2]: 34.52%

CCC1(NC(=O)c2cc(F)c(F)c(F)c2F)C(=O)NC(=O)N(C2CCCCC2)C1=O (racemic) [Compound 20i, N-(1-Cyclohexyl-5-ethyl-hexahydro-2,4,6-trioxo-5-pyrimidinyl)-2,3,4,5-tetrafluorobenzamide]
activity at 50 µM [1]: 9.73%

CCC1(NC(=O)c2cc(F)c(F)c(F)c2F)C(=O)NC(=O)N(c2ccccc2)C1=O (racemic) [Compound 20k, N-(5-Ethyl-hexahydro-2,4,6-trioxo-1-phenyl-5-pyrimidinyl)-2,3,4,5-tetrafluorobenzamide]
activity at 50 µM [1]: 18.1%

NC(=O)c1nnn(Cc2cc(Cl)c(C(=O)c3ccc(Cl)cc3)c(Cl)c2)c1N [CAI, Carboxyamidotriazole, reference compound]
activity at 50 µM ([1]; phthalimides 19, 50 μM daily for four days, DMSO control = 100): 4.03%
Average of Growth [%] ([1]; tetrafluorobenzamides 20, 50 μM daily for four days, DMSO control = 100): 4.03%

CCC1(N2C(=O)c3c(F)c(F)c(F)c(F)c3C2=O)C(=O)NC(=O)N(c2ccccc2)C1=O (stereo not drawn) [Compound 19k]
Average of Growth [%] [4]: 24.25^[a] %

From patent publication US8143252B2, “Tetrahalogenated compounds useful as inhibitors of angiogenesis” (The United States of America as represented by the …, priority 2006, dated 2012)
